Consider 29 molecules from patent US20150252047A1, “SUBSTITUTED INDAZOL-PYRROLOPYRIMIDINES USEFUL IN THE TREATMENT OF HYPERPROLIFERATIVE DISEASES” (BAYER PHARMA AKTIENGESELLSCHAFT, priority 2012, published 2015).

Each structure is given as a SMILES string. pIC50: −log10 of the molar value.

T1 sequence (Q9BUB5 1-424 isoform Q9BUB5-2 T344D): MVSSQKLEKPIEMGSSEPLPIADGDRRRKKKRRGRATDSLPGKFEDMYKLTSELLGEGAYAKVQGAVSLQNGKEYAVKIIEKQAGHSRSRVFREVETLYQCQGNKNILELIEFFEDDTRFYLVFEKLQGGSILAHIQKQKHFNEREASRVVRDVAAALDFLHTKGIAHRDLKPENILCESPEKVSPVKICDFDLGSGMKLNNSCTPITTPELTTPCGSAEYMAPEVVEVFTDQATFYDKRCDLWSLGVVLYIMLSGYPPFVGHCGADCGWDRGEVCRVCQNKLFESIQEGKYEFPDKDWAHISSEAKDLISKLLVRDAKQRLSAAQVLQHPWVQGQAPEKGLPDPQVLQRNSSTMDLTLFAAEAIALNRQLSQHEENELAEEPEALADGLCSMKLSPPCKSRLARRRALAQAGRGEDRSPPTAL

This assay concerns the target T1, human full-length MKNK1 (Homo sapiens, UniProt Q9BUB5, T385D).
T1 construct: GST (N); purchased Carna Biosciences 02-145; host or cells: insect cells (baculovirus expression system)
Nature of the assay: MKNK1 kinase high ATP assay (TR-FRET). The format is biochemical. Particulars: high ATP (2 mM final), 15 min preincubation with enzyme, 30 min reaction at 22° C. On the procedure:
MKNK1-inhibitory activity at high ATP of compounds of the present invention after their preincubation with MKNK1 was quantified employing the TR-FRET-based MKNK1 high ATP assay as described in the following paragraphs.
A recombinant fusion protein of Glutathione-S-Transferase (GST, N-terminally) and human full-length MKNK1 (amino acids 1-424 and T344D of accession number BAA 19885.1), expressed in insect cells using baculovirus expression system and purified via glutathione sepharose affinity chromatography, was purchased from Carna Biosciences (product no 02-145) and used as enzyme. As substrate for the kinase reaction the biotinylated peptide biotin-Ahx-IKKRKLTRRKSLKG (C-terminus in amide form) was used, which can be purchased e.g. from the company Biosyntan (Berlin-Buch, Germany).
For the assay 50 nL of a 100 fold concentrated solution of the test compound in DMSO was pipetted into a black low volume 384 well microtiter plate (Greiner Bio-One, Frickenhausen, Germany), 2 μL of a solution of MKNK1 in aqueous assay buffer [50 mM HEPES pH 7.5, 5 mM MgCl2, 1.0 mM dithiothreitol, 0.005% (v/v) Nonidet-P40 (Sigma)] was added and the mixture was incubated for 15 min at 22° C. to allow pre-binding of the test compounds to the enzyme before the start of the kinase reaction. Then the kinase reaction was started by the addition of 3 μL of a solution of adenosine-tri-phosphate (ATP, 3.3 mM=>final conc. in the 5 μL assay volume is 2 mM) and substrate (0.1 μM=>final conc. in the 5 μL assay volume is 0.06 μM) in assay buffer and the resulting mixture was incubated for a reaction time of 30 min at 22° C. The concentration of MKNK1 was adjusted depending of the activity of the enzyme lot and was chosen appropriate to have the assay in the linear range, typical concentrations were in the range of 0.003 μg/mL. The reaction was stopped by the addition of 5 μL of a solution of TR-FRET detection reagents (5 nM streptavidine-XL665 [Cisbio Bioassays, Codolet, France] and 1 nM anti-ribosomal protein S6 (pSer236)-antibody from Invitrogen [#44921G] and 1 nM LANCE EU-W1024 Labeled ProteinG [Perkin-Elmer, product no. AD0071]) in an aqueous EDTA-solution (100 mM EDTA, 0.1% (w/v) bovine serum albumin in 50 mM HEPES pH 7.5).
The resulting mixture was incubated for 1 h at 22° C. to allow the formation of complex between the phosphorylated biotinylated peptide and the detection reagents. Subsequently the amount of phosphorylated substrate was evaluated by measurement of the resonance energy transfer from the Eu-chelate to the streptavidine-XL. Therefore, the fluorescence emissions at 620 nm and 665 nm after excitation at 350 nm were measured in a TR-FRET reader, e.g. a Rubystar (BMG Labtechnologies, Offenburg, Germany) or a Viewlux (Perkin-Elmer). The ratio of the emissions at 665 nm and at […] was taken as the measure for the amount of phosphorylated substrate. The data were normalised (enzyme reaction without inhibitor=0% inhibition, all other assay components but no enzyme=100% inhibition).
By pIC50 is commonly meant the negative decadic logarithm of the IC50, by convention in mol/L. Low readings indicate a high IC50, high ones a low IC50. Regarding `CCc1[nH]c2ncnc(Nc3cc4cn[nH]c4cc3OC)c2c1C` [Example 1, 6-Ethyl-N-(6-methoxy-1H-indazol-5-yl)-5-methyl-7H-pyrrolo[2,3-d]pyrimidin-4-amine], the pIC50 was 8.52.

Regarding `COc1cc2[nH]ncc2cc1Nc1ncnc2[nH]ccc12` [Example 2, N-(6-methoxy-1H-indazol-5-yl)-7H-pyrrolo[2,3-d]pyrimidin-4-amine], the pIC50 is 7.77.

The molecule `COc1cc2[nH]ncc2cc1Nc1ncnc2[nH]cc(F)c12` [Example 3, 5-fluoro-N-(6-methoxy-1H-indazol-5-yl)-7H-pyrrolo[2,3-d]pyrimidin-4-amine] gave a pIC50 of 8.30.

Consider `COc1cc2[nH]ncc2cc1Nc1ncnc2[nH]cc(C(=O)O)c12` [Example 4, 4-[(6-methoxy-1H-indazol-5-yl)amino]-7H-pyrrolo[2,3-d]pyrimidine-5-carboxylic acid], for which the pIC50 was 7.14.

Consider `COc1cc2[nH]ncc2cc1Nc1ncnc2[nH]cc(C(=O)N3CCN(C)CC3)c12` [Example 5, {4-[(6-methoxy-1H-indazol-5-yl)amino]-7H-pyrrolo[2,3-d]pyrimidin-5-yl}(4-methylpiperazin-1-yl)methanone], for which the pIC50 is 6.96.

Molecule `COc1cc2[nH]ncc2cc1Nc1ncnc2[nH]cc(C(=O)NC(C)C)c12` [Example 6, N-isopropyl-4-[(6-methoxy-1H-indazol-5-yl)amino]-7H-pyrrolo[2,3-d]pyrimidine-5-carboxamide] had a negative logarithm of the IC50 (pIC50) of 7.80. Compared with the last molecule, the pIC50 is 0.84 log units higher.

The molecule `FC(F)(F)c1n[nH]c2ccc(Nc3ncnc4[nH]ccc34)cc12` [Example 7, N-[3-(trifluoromethyl)-1H-indazol-5-yl]-7H-pyrrolo[2,3-d]pyrimidin-4-amine] showed a pIC50 of 6.75.

For the molecule `Cc1cc2[nH]ncc2cc1Nc1ncnc2[nH]cc(C(=O)O)c12` [Example 8, 4-[(6-Methyl-1H-indazol-5-yl)amino]-7H-pyrrolo[2,3-d]pyrimidine-5-carboxylic acid], the pIC50 was 7.14.

On to `Fc1cc2[nH]ncc2cc1Nc1ncnc2[nH]cc(F)c12` [Example 9, 5-Fluoro-N-(6-fluoro-1H-indazol-5-yl)-7H-pyrrolo[2,3-d]pyrimidin-4-amine], for which the pIC50 was 7.54.

For `O=C(O)c1c[nH]c2ncnc(Nc3cc4cn[nH]c4cc3F)c12` [Example 10, 4-[(6-Fluoro-1H-indazol-5-yl)amino]-7H-pyrrolo[2,3-d]pyrimidine-5-carboxylic acid], the pIC50 is 7.85.

As to `Cc1cc2[nH]ncc2cc1Nc1ncnc2[nH]cc(F)c12` [Example 11, 5-Fluoro-N-(6-methyl-1H-indazol-5-yl)-7H-pyrrolo[2,3-d]pyrimidin-4-amine], the pIC50 is 7.13.

On to `Cc1cc2[nH]ncc2cc1Nc1ncnc2[nH]cc(C(=O)N(C)C)c12` [Example 12, N,N-Dimethyl-4-[(6-methyl-1H-indazol-5-yl)amino]-7H-pyrrolo[2,3-d]pyrimidine-5-carboxamide], for which the pIC50 is 6.68.

`Cc1cc2[nH]ncc2cc1Nc1ncnc2[nH]cc(C(=O)N3CCN(C)CC3)c12` [Example 13, {4-[(6-Methyl-1H-indazol-5-yl)amino]-7H-pyrrolo[2,3-d]pyrimidin-5-yl}(4-methylpiperazin-1-yl)methanone] showed a pIC50 of 6.71.

As to `Cc1cc2[nH]ncc2cc1Nc1ncnc2[nH]cc(C(=O)NC(C)C)c12` [Example 14, 4-[(6-Methyl-1H-indazol-5-yl)amino]-N-(propan-2-yl)-7H-pyrrolo[2,3-d]pyrimidine-5-carboxamide], the pIC50 is 7.47.

Molecule `Fc1cc2[nH]ncc2cc1Nc1ncnc2[nH]cc(Br)c12` [Example 15, 5-Bromo-N-(6-fluoro-1H-indazol-5-yl)-7H-pyrrolo[2,3-d]pyrimidin-4-amine] had a pIC50 of 7.92.

In turn, `CN(C)C(=O)c1c[nH]c2ncnc(Nc3cc4cn[nH]c4cc3F)c12` [Example 16, 4-[(6-Fluoro-1H-indazol-5-yl)amino]-N, N-dimethyl-7H-pyrrolo[2,3-d]pyrimidine-5-carboxamide] gave a pIC50 of 7.51.

`CN1CCN(C(=O)c2c[nH]c3ncnc(Nc4cc5cn[nH]c5cc4F)c23)CC1` [Example 17, {4-[(6-Fluoro-1H-indazol-5-yl)amino]-7H-pyrrolo[2,3-d]pyrimidin-5-yl}(4-methylpiperazin-1-yl)methanone] showed a pIC50 of 7.52.

The molecule `CC(C)NC(=O)c1c[nH]c2ncnc(Nc3cc4cn[nH]c4cc3F)c12` [Example 18, 4-[(6-Fluoro-1H-indazol-5-yl)amino]-N-(propan-2-yl)-7H-pyrrolo[2,3-d]pyrimidine-5-carboxamide] showed a pIC50 of 8.05.

`COc1cc2[nH]ncc2cc1Nc1ncnc2[nH]cc(Br)c12` [Example 19, 5-Bromo-N-(6-methoxy-1H-indazol-5-yl)-7H-pyrrolo[2,3-d]pyrimidin-4-amine] showed a pIC50 of 9.00.

`COc1cc2[nH]ncc2cc1Nc1ncnc2[nH]c(Br)cc12` [Example 20, 6-Bromo-N-(6-methoxy-1H-indazol-5-yl)-7H-pyrrolo[2,3-d]pyrimidin-4-amine] showed a pIC50 of 7.89. Compared with the last molecule, the pIC50 is 1.11 log units lower.

As to `COc1cc2[nH]ncc2cc1Nc1ncnc2[nH]c(S(C)(=O)=O)cc12` [Example 21, N-(6-Methoxy-1H-indazol-5-yl)-6-(methylsulfonyl)-7H-pyrrolo[2,3-d]pyrimidin-4-amine], the pIC50 is 8.22.

In turn, `COc1cc2[nH]ncc2cc1Nc1ncnc2[nH]c(C#CCO)cc12` [Example 22, 3-{4-[(6-Methoxy-1H-indazol-5-yl)amino]-7H-pyrrolo[2,3-d]pyrimidin-6-yl}prop-2-yn-1-ol] showed a pIC50 of 7.96.

Molecule `COc1cc2[nH]ncc2cc1Nc1ncnc2[nH]c(CCCO)cc12` [Example 23, 3-{4-[(6-Methoxy-1H-indazol-5-yl)amino]-7H-pyrrolo[2,3-d]pyrimidin-6-yl}propan-1-ol] gave a pIC50 of 7.57. Compared with the last molecule, the pIC50 is 0.39 log units lower.

`CC(C)Oc1cc2[nH]ncc2cc1Nc1ncnc2[nH]ccc12` [Example 24, N-[6-(Propan-2-yloxy)-1H-indazol-5-yl]-7H-pyrrolo[2,3-d]pyrimidin-4-amine] showed a pIC50 of 7.59. The pIC50 values of the last two molecules are within 0.2 log units of each other.

In the case of `CC(C)Oc1cc2[nH]ncc2cc1Nc1ncnc2[nH]cc(F)c12` [Example 25, 5-Fluoro-N-[6-(propan-2-yloxy)-1H-indazol-5-yl]-7H-pyrrolo[2,3-d]pyrimidin-4-amine], the pIC50 was 8.30.

On to `CC(C)Oc1cc2[nH]ncc2cc1Nc1ncnc2[nH]cc(Br)c12` [Example 26, 5-Bromo-N-[6-(propan-2-yloxy)-1H-indazol-5-yl]-7H-pyrrolo[2,3-d]pyrimidin-4-amine], for which the pIC50 was 8.70.

`CCc1[nH]c2ncnc(Nc3cc4cn[nH]c4cc3OC(C)C)c2c1C` [Example 27, 6-Ethyl-5-methyl-N-[6-(propan-2-yloxy)-1H-indazol-5-yl]-7H-pyrrolo[2,3-d]pyrimidin-4-amine] gave a pIC50 of 8.52.

Consider `CC(C)Oc1cc2[nH]ncc2cc1Nc1ncnc2[nH]cc(C(=O)O)c12` [Example 28, 4-{[6-(Propan-2-yloxy)-1H-indazol-5-yl]amino}-7H-pyrrolo[2,3-d]pyrimidine-5-carboxylic acid], for which the negative-log IC50 (pIC50) is 6.74. This pIC50 is 1.78 log units lower than that of the molecule before.

Regarding `CC(C)Oc1cc2[nH]ncc2cc1Nc1ncnc2[nH]cc(C(=O)N3CCN(C)CC3)c12` [Example 29, (4-Methylpiperazin-1-yl)(4-{[6-(propan-2-yloxy)-1H-indazol-5-yl]amino}-7H-pyrrolo[2,3-d]pyrimidin-5-yl)methanone], the pIC50 is 6.93.
